The values below come from PubChem BioAssay AID2647 (Sanford-Burnham Center for Chemical Genomics, 2010).

This experiment relates to MDA-MB-435/MDR TRAIL potentiation, ATPlite luminescence, 24 h. Description: PubChem AID 2647.

Consider `CSc1nc(-c2ccc(C)cc2)nc(C(Cl)Cl)n1`, for which, under “at 10 µM (top of the series)”, the cytotoxicity with TRAIL is 84%. Moreover, for the setting “compound alone without TRAIL, at 10 µM, stronger effect = higher value”, the cytotoxicity was 1%.
